Measurements reported in ChEMBL document CHEMBL1201862, “PubChem BioAssay data set” (2004).
Structures can show the parent of a compound that is named as a salt.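 Results reflect a 48-hour exposure of cells in 96-well plates to compound at five concentrations. At the GI50, growth is halved.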 The source made the active and inactive calls. Cut-off read from the data, not from the text of the source: active = GI50 up to about 1.1 µM and inactive = higher. Peptide text beside a SMILES is read from it. * marks the point of attachment. Cbz = O=C(OCc1ccccc1)*; NHNH2 = NN*

Assays:
Test in all cases: NCI tumour cell line growth inhibition, 48 h
KM12 = system: KM12
SK-MEL-2 = system: SK-MEL-2
COLO 205 = system: COLO 205
SK-MEL-5 = system: SK-MEL-5
NCI-H460 = system: NCI-H460
786-0 = system: 786-0
CAKI-1 = system: CAKI-1
OVCAR-5 = system: OVCAR-5
PC-3 = system: PC-3
A549 = system: A549
MDA-MB-231 = system: MDA-MB-231
OVCAR-8 = system: OVCAR-8
HCC 2998 = system: HCC 2998
RXF 393 = system: RXF 393
EKVX = system: EKVX
ACHN = system: ACHN
NCI-H23 = system: NCI-H23
UACC-62 = system: UACC-62
T47D = system: T47D
NCI-H226 = system: NCI-H226

| SMILES | GI50 (KM12) | GI50 (SK-MEL-2) | GI50 (COLO 205) | GI50 (SK-MEL-5) | GI50 (NCI-H460) | GI50 (786-0) | GI50 (CAKI-1) | GI50 (OVCAR-5) | GI50 (PC-3) | GI50 (A549) | GI50 (MDA-MB-231) | GI50 (OVCAR-8) | GI50 (HCC 2998) | GI50 (RXF 393) | GI50 (EKVX) | GI50 (ACHN) | GI50 (NCI-H23) | GI50 (UACC-62) | GI50 (T47D) | GI50 (NCI-H226) |
| --- | --- | --- | --- | --- | --- | --- | --- | --- | --- | --- | --- | --- | --- | --- | --- | --- | --- | --- | --- | --- |
| COC(=O)[C@@H]1C[C@H]2[C@H](c3ccccc3Br)[C@@H](OC(C)=O)[C@@H](OCc3ccccc3)ON2O1 | > 100 µM (inactive) | 69.2 µM (inactive) | > 100 µM (inactive) | > 100 µM (inactive) | 92.3 µM (inactive) | > 100 µM (inactive) | > 100 µM (inactive) | > 100 µM (inactive) | > 100 µM (inactive) | > 100 µM (inactive) | > 100 µM (inactive) | > 100 µM (inactive) | 51.9 µM (inactive) | > 100 µM (inactive) | > 100 µM (inactive) | > 100 µM (inactive) | > 100 µM (inactive) | > 100 µM (inactive) | > 100 µM (inactive) |  |
| COc1ccc(OC)c2sc(N3C(=O)/C(=C/c4cccc(Oc5ccccc5)c4)N=C3c3ccccc3)nc12 | 70 µM (inactive) | > 100 µM (inactive) | 51.8 µM (inactive) | 47.5 µM (inactive) | > 100 µM (inactive) | > 100 µM (inactive) | > 100 µM (inactive) | > 100 µM (inactive) | > 100 µM (inactive) | > 100 µM (inactive) | > 100 µM (inactive) | 76 µM (inactive) | > 100 µM (inactive) | > 100 µM (inactive) | > 100 µM (inactive) | > 100 µM (inactive) | > 100 µM (inactive) | > 100 µM (inactive) | 47 µM (inactive) |  |
| C[C@H](CCCOS(C)(=O)=O)[C@H]1CC[C@H]2[C@@H]3CC[C@@H]4C[C@H](OS(C)(=O)=O)CC[C@]4(C)[C@H]3CC[C@]12C | 29.2 µM (inactive) | 60.1 µM (inactive) | > 100 µM (inactive) | 29.8 µM (inactive) | 30.5 µM (inactive) | 31 µM (inactive) | 11.6 µM (inactive) | 39.3 µM (inactive) | 20.6 µM (inactive) | 17 µM (inactive) | 13.8 µM (inactive) | 14.5 µM (inactive) |  | 52 µM (inactive) | 28.2 µM (inactive) | 15.6 µM (inactive) | 16.6 µM (inactive) | 22.8 µM (inactive) | 24.8 µM (inactive) | 17.5 µM (inactive) |
| O=C1NC(N2CCCCC2)=N/C1=C\c1cccs1 | > 100 µM (inactive) | > 100 µM (inactive) | > 100 µM (inactive) |  |  | > 100 µM (inactive) | > 100 µM (inactive) | > 100 µM (inactive) | > 100 µM (inactive) | > 100 µM (inactive) | > 100 µM (inactive) | > 100 µM (inactive) | > 100 µM (inactive) | > 100 µM (inactive) | > 100 µM (inactive) | > 100 µM (inactive) | > 100 µM (inactive) | > 100 µM (inactive) | > 100 µM (inactive) | > 100 µM (inactive) |
| COc1ccc(-c2cc(-c3ccco3)c(C#N)c(=S)n2C2OC(COC(C)=O)C(OC(C)=O)C(OC(C)=O)C2OC(C)=O)cc1 (centres undefined) | 11.9 µM (inactive) |  | 4.36 µM (inactive) | 10.6 µM (inactive) | 5.11 µM (inactive) | 3.28 µM (inactive) | 3.98 µM (inactive) | 15.6 µM (inactive) | 4.07 µM (inactive) | 5.9 µM (inactive) | 4.47 µM (inactive) | 3.78 µM (inactive) | 14.9 µM (inactive) | 9.53 µM (inactive) | 13.5 µM (inactive) | 6.82 µM (inactive) | 9.71 µM (inactive) | 3.72 µM (inactive) | 5.24 µM (inactive) | 5.7 µM (inactive) |
| N#Cc1[nH]c(=O)n(-c2ccccc2)c1N | > 10 µM (inactive) | > 10 µM (inactive) | > 10 µM (inactive) | > 10 µM (inactive) | > 10 µM (inactive) | > 10 µM (inactive) |  | 0.141 µM (active) | > 10 µM (inactive) | > 10 µM (inactive) | > 10 µM (inactive) | > 10 µM (inactive) | > 10 µM (inactive) | > 10 µM (inactive) | > 10 µM (inactive) | > 10 µM (inactive) | > 10 µM (inactive) | > 10 µM (inactive) | > 10 µM (inactive) | > 10 µM (inactive) |
| c1ccc2c(c1)Sc1ccccc1N2CCCN1c2ccccc2Sc2ccccc21 | > 100 µM (inactive) |  | 52.6 µM (inactive) | > 100 µM (inactive) | 39.9 µM (inactive) | 20.2 µM (inactive) | > 100 µM (inactive) | > 100 µM (inactive) | > 100 µM (inactive) | > 100 µM (inactive) | > 100 µM (inactive) | 54.2 µM (inactive) | > 100 µM (inactive) | 78.5 µM (inactive) | > 100 µM (inactive) | 39.1 µM (inactive) | > 100 µM (inactive) | > 100 µM (inactive) | > 100 µM (inactive) | > 100 µM (inactive) |
| COc1ccc2c(c1)CCCN1CCc3cc(OC)c(OC)cc3C21 (centres undefined) | > 100 µM (inactive) |  | > 100 µM (inactive) | > 100 µM (inactive) |  | > 100 µM (inactive) | > 100 µM (inactive) | > 100 µM (inactive) | > 100 µM (inactive) | > 100 µM (inactive) | > 100 µM (inactive) | > 100 µM (inactive) | 45.7 µM (inactive) |  | > 100 µM (inactive) | 84.1 µM (inactive) |  | > 100 µM (inactive) | > 100 µM (inactive) | > 100 µM (inactive) |
| Cc1nc2ccccc2c(=O)n1NC(=O)c1ccccn1 | > 100 µM (inactive) |  | > 100 µM (inactive) | > 100 µM (inactive) | > 100 µM (inactive) | > 100 µM (inactive) |  |  | > 100 µM (inactive) | > 100 µM (inactive) | > 100 µM (inactive) | > 100 µM (inactive) | > 100 µM (inactive) | > 100 µM (inactive) | > 100 µM (inactive) | > 100 µM (inactive) | > 100 µM (inactive) | > 100 µM (inactive) | > 100 µM (inactive) |  |
| COC(=O)CC(c1cn(S(=O)(=O)c2ccc(C)cc2)c2ccccc12)C1C[C@@H](C(=O)OC)N(C(=O)OC(C)(C)C)C1=O (some centres undefined) | 71.9 µM (inactive) | 44.3 µM (inactive) | 26.7 µM (inactive) | > 100 µM (inactive) | 26.6 µM (inactive) | 63.8 µM (inactive) | 31.7 µM (inactive) | > 100 µM (inactive) | 47.6 µM (inactive) | 27 µM (inactive) | 22.5 µM (inactive) | 43.4 µM (inactive) |  | 9.79 µM (inactive) | > 100 µM (inactive) | 12.5 µM (inactive) | 66.8 µM (inactive) | 55.6 µM (inactive) | 95.3 µM (inactive) | > 100 µM (inactive) |
| CCS(=O)(=O)CCn1c(=O)c2c(ncn2C)n(C)c1=O | > 100 µM (inactive) | > 100 µM (inactive) | > 100 µM (inactive) | > 100 µM (inactive) | > 100 µM (inactive) | > 100 µM (inactive) | > 100 µM (inactive) | > 100 µM (inactive) | > 100 µM (inactive) | > 100 µM (inactive) | > 100 µM (inactive) | > 100 µM (inactive) | > 100 µM (inactive) | > 100 µM (inactive) | > 100 µM (inactive) | > 100 µM (inactive) | > 100 µM (inactive) | > 100 µM (inactive) | > 100 µM (inactive) |  |
| COc1cc(C2c3cc4c(cc3[C@@H](Nc3cccc(O)c3)C3COC(=O)[C@H]23)OCO4)cc(OC)c1O (some centres undefined) | 3.31 µM (inactive) | 5.2 µM (inactive) | 6.17 µM (inactive) | 1.7 µM (inactive) | 0.0726 µM (active) | 2.07 µM (inactive) |  | 8.26 µM (inactive) | 2.14 µM (inactive) | 0.439 µM (active) | 5.42 µM (inactive) | 2 µM (inactive) | 3.58 µM (inactive) | 1.44 µM (inactive) | 5.16 µM (inactive) | 0.668 µM (active) | 1.05 µM (active) | 1.2 µM (inactive) | 2.24 µM (inactive) | 0.771 µM (active) |
| COC(=O)CC(NC(=O)OCc1ccccc1)C(=O)NC(CC(=O)OC)C(=O)NC(CC(=O)OC)C(=O)NC(CC(=O)OC)C(=O)NC(CC(=O)OC)C(=O)NC(CC(=O)OC)C(=O)NN (centres undefined) (Cbz-D(OMe)D(OMe)D(OMe)D(OMe)D(OMe)D(OMe)-NHNH2; configuration not given here) | > 100 µM (inactive) | > 100 µM (inactive) | > 100 µM (inactive) | > 100 µM (inactive) | > 100 µM (inactive) | > 100 µM (inactive) |  | > 100 µM (inactive) | > 100 µM (inactive) |  | > 100 µM (inactive) | > 100 µM (inactive) | > 100 µM (inactive) |  |  | > 100 µM (inactive) |  | > 100 µM (inactive) | > 100 µM (inactive) |  |
| COc1ccc(Cc2nccc3cc(OC)c(OC)cc23)cc1OC [PAPAVERINE HYDROCHLORIDE] | > 100 µM (inactive) | > 100 µM (inactive) | > 100 µM (inactive) | 16.6 µM (inactive) | 19 µM (inactive) | > 100 µM (inactive) | 47.3 µM (inactive) | > 100 µM (inactive) | 74.3 µM (inactive) | > 100 µM (inactive) | 47.2 µM (inactive) | 64.9 µM (inactive) | 92.9 µM (inactive) |  | 45.5 µM (inactive) | 63 µM (inactive) | 19.8 µM (inactive) | > 100 µM (inactive) | 19.5 µM (inactive) | 43.5 µM (inactive) |
